From patent publication US9376442B2, “Methylpyrrolopyrimidinecarboxamides” (Takeda GmbH, priority 2009, dated 2016)

These compounds were tested against T1, PDE5A1 (Homo sapiens, UniProt O76074) (assay: Inhibition of type 5 phosphodiesterase (PDE5) activity, modified SPA test with human platelet lysate). Conditions: 0.5 μM cGMP, read-out: PDE5A1 inhibitory values [measured as −log IC50 (mol/l)] (converted).
T1 construct: from tissue; host or cells: human platelets from fresh donor blood (10,000 x g supernatant of sonicated lysate)
Type: biochemical
Summary of the method: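 Enzyme source is lysate from human platelets (10,000 g supernatant). Compound preincubated 5 min at 37° C in Tris pH 7.4 containing 1 μM motapizone and 10 nM of a PDE2 inhibitor. Reaction started with 0.5 μM cGMP ([3H] tracer) and run 15 min; SPA read-out, IC50 by non-linear regression.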

Structure (SMILES) | IC50 [nM]
CCC(=O)N[C@H]1CC[C@H](NC(=O)c2c(C)[nH]c3c(-c4ccc(F)cc4OCC4CC4)ncnc23)CC1 [Example E23, 4-[2-(Cyclopropylmethoxy)-4-fluorophenyl]-6-methyl-N-[trans-4-(propionylamino)cyclohexyl]-5H-pyrrolo[3,2-d]pyrimidine-7-carboxamide] | < 1
COCC(=O)N[C@H]1CC[C@H](NC(=O)c2c(C)[nH]c3c(-c4ccc(F)cc4OCC4CC4)ncnc23)CC1 [Example E24, 4-[2-(Cyclopropylmethoxy)-4-fluorophenyl]-N-{trans-4-[(methoxyacetyl)amino]cyclohexyl}-6-methyl-5H-pyrrolo[3,2-d]pyrimidine-7-carboxamide] | < 1
CC(=O)N[C@H]1CC[C@@H](NC(=O)c2c(C)[nH]c3c(-c4ccc(F)cc4OCC4CC4)ncnc23)CC1 [Example E25, N-(cis-4-acetamidocyclohexyl)-4-[2-(cyclopropylmethoxy)-4-fluorophenyl]-6-methyl-5H-pyrrolo[3,2-d]pyrimidine-7-carboxamide] | < 1
CCC(=O)N[C@H]1CC[C@@H](NC(=O)c2c(C)[nH]c3c(-c4ccc(F)cc4OCC4CC4)ncnc23)CC1 [Example E26, 4-[2-(Cyclopropylmethoxy)-4-fluorophenyl]-6-methyl-N-[cis-4-(propionylamino)cyclohexyl]-5H-pyrrolo[3,2-d]pyrimidine-7-carboxamide] | < 1
COCC(=O)N[C@H]1CC[C@@H](NC(=O)c2c(C)[nH]c3c(-c4ccc(F)cc4OCC4CC4)ncnc23)CC1 [Example E27, 4-[2-(Cyclopropylmethoxy)-4-fluorophenyl]-N-{cis-4-[(methoxyacetyl)amino]cyclohexyl}-6-methyl-5H-pyrrolo[3,2-d]pyrimidine-7-carboxamide] | < 1
CC(=O)N1CC[C@@H](NC(=O)c2c(C)[nH]c3c(-c4ccc(F)cc4OCC4CC4)ncnc23)C1 [Example E28, N-[(3R)-1-acetylpyrrolidin-3-yl]-4-[2-(cyclopropylmethoxy)-4-fluorophenyl]-6-methyl-5H-pyrrolo[3,2-d]pyrimidine-7-carboxamide] | 1 to 10
CCC(=O)N1CC[C@@H](NC(=O)c2c(C)[nH]c3c(-c4ccc(F)cc4OCC4CC4)ncnc23)C1 [Example E29, 4-[2-(Cyclopropylmethoxy)-4-fluorophenyl]-6-methyl-N-[(3R)-1-propanoylpyrrolidin-3-yl]-5H-pyrrolo[3,2-d]pyrimidine-7-carboxamide] | < 1
COCC(=O)N1CC[C@@H](NC(=O)c2c(C)[nH]c3c(-c4ccc(F)cc4OCC4CC4)ncnc23)C1 [Example E30, 4-[2-(Cyclopropylmethoxy)-4-fluorophenyl]-N-[(3R)-1-(methoxyacetyl)pyrrolidin-3-yl]-6-methyl-5H-pyrrolo[3,2-d]pyrimidine-7-carboxamide] | < 1
CC(=O)N1CC[C@@H](NC(=O)c2c(C)[nH]c3c(-c4cc(F)ccc4OCC4CC4)ncnc23)C1 [Example E46, N-[(3R)-1-acetylpyrrolidin-3-yl]-4-[2-(cyclopropylmethoxy)-5-fluorophenyl]-6-methyl-5H-pyrrolo[3,2-d]pyrimidine-7-carboxamide] | 1 to 10
CCC(=O)N1CC[C@@H](NC(=O)c2c(C)[nH]c3c(-c4cc(F)ccc4OCC4CC4)ncnc23)C1 [Example E47, 4-[2-(Cyclopropylmethoxy)-5-fluorophenyl]-6-methyl-N-[(3R)-1-propanoylpyrrolidin-3-yl]-5H-pyrrolo[3,2-d]pyrimidine-7-carboxamide] | 1 to 10
COCC(=O)N1CC[C@@H](NC(=O)c2c(C)[nH]c3c(-c4cc(F)ccc4OCC4CC4)ncnc23)C1 [Example E48, 4-[2-(Cyclopropylmethoxy)-5-fluorophenyl]-N-[(3R)-1-(methoxyacetyl)pyrrolidin-3-yl]-6-methyl-5H-pyrrolo[3,2-d]pyrimidine-7-carboxamide] | 1 to 10
CCOc1ccc(F)cc1-c1ncnc2c(C(=O)NC3CCN(C(C)=O)CC3)c(C)[nH]c12 [Example E52, N-(1-acetylpiperidin-4-yl)-4-(2-ethoxy-5-fluorophenyl)-6-methyl-5H-pyrrolo[3,2-d]pyrimidine-7-carboxamide] | 1 to 10
